Measurements as given in ChEMBL document CHEMBL5291721, “A preclinical secondary pharmacology resource illuminates target-adverse drug reaction associations of marketed drugs” (Nat Commun, 2023).

How the values were obtained:
[1] = molecular target: T1, Alpha-1A adrenergic receptor (Homo sapiens, UniProt P35348)
T1 sequence (P35348 whole entry): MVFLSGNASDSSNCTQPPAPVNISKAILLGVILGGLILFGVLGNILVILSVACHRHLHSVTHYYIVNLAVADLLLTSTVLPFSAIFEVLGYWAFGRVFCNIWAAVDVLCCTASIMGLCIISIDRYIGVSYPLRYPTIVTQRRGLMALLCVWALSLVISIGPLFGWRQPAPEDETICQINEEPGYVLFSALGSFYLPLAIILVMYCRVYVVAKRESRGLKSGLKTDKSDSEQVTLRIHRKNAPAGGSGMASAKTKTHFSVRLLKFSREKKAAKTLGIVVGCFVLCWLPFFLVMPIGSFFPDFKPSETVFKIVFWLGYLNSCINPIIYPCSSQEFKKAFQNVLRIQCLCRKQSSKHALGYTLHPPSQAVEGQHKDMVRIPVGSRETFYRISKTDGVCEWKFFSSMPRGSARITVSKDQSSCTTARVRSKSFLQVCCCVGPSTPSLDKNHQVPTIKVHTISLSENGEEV

[2] = molecular target: T2, Beta-2 adrenergic receptor (Homo sapiens, UniProt P07550); assay type: functional, cell-based
[3] = molecular target: T2, Beta-2 adrenergic receptor
Estrogen receptor = molecular target: T3, Estrogen receptor (Homo sapiens, UniProt P03372)
T3 sequence (P03372 whole entry): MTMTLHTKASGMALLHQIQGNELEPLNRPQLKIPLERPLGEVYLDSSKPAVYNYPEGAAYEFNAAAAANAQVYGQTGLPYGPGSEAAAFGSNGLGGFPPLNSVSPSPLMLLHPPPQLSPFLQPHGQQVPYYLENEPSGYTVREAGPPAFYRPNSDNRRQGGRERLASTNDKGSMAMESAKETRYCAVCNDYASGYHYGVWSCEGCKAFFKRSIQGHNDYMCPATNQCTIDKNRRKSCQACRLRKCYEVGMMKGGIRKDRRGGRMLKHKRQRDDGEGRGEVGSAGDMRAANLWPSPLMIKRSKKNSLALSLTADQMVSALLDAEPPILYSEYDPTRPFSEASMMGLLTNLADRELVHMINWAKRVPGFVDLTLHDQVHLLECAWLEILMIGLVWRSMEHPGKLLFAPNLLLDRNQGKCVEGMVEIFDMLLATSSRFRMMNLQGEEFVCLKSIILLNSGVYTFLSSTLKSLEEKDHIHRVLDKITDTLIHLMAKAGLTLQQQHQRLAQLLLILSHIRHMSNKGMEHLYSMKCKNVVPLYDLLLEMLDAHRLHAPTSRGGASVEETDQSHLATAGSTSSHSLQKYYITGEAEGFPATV

Melanocortin receptor 4 = Melanocortin receptor 4 (Homo sapiens, UniProt P32245)
Glucocorticoid receptor = molecular target: T4, Glucocorticoid receptor (Homo sapiens, UniProt P04150)
T4 sequence (P04150 whole entry): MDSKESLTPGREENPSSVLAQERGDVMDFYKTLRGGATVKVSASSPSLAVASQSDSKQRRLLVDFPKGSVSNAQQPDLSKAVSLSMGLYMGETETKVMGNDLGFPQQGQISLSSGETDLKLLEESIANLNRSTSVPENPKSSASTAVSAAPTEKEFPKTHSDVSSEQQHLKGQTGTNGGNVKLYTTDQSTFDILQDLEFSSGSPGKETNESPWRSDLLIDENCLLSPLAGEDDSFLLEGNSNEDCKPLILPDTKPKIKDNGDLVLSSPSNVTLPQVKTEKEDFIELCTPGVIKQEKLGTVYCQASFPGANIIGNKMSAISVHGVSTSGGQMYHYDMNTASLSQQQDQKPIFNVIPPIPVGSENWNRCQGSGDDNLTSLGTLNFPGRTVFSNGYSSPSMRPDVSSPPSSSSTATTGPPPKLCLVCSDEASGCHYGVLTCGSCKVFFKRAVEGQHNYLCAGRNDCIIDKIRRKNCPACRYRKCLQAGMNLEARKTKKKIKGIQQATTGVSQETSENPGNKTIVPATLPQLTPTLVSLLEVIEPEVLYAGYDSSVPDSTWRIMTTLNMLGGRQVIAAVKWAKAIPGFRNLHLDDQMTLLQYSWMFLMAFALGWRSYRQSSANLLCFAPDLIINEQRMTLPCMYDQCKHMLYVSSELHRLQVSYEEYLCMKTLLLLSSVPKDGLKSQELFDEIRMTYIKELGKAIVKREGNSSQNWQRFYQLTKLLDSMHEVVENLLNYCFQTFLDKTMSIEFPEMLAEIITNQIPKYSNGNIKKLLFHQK

Progesterone receptor = molecular target: T5, Progesterone receptor (Homo sapiens, UniProt P06401); assay type: functional
T5 sequence (P06401 whole entry): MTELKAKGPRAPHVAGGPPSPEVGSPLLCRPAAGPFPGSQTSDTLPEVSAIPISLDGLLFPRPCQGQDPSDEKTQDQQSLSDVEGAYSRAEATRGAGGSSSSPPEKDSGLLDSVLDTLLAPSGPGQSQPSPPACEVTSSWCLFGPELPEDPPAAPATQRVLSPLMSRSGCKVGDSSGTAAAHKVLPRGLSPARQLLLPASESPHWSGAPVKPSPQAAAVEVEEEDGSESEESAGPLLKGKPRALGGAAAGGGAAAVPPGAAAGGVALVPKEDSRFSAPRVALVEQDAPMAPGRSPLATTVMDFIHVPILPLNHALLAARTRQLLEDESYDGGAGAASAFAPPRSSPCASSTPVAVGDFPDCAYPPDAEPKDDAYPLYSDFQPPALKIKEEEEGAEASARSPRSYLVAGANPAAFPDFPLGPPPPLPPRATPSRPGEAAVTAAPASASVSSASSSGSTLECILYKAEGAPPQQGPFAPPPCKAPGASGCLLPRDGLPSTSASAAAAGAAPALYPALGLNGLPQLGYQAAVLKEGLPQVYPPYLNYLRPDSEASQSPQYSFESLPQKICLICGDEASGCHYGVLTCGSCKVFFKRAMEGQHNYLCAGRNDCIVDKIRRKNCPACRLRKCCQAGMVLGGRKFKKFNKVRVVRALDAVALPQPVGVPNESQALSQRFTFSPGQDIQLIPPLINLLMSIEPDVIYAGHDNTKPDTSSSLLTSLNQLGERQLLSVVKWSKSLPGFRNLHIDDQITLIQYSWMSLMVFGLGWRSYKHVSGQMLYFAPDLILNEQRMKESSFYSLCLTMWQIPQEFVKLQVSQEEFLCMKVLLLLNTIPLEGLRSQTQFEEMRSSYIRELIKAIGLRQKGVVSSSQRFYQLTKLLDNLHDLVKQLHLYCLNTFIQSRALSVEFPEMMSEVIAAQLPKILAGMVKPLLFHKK

[4] = molecular target: Sodium-dependent serotonin transporter (Homo sapiens, UniProt P31645)
Also: assay procedure not described here.

T2 sequence (P07550 whole entry): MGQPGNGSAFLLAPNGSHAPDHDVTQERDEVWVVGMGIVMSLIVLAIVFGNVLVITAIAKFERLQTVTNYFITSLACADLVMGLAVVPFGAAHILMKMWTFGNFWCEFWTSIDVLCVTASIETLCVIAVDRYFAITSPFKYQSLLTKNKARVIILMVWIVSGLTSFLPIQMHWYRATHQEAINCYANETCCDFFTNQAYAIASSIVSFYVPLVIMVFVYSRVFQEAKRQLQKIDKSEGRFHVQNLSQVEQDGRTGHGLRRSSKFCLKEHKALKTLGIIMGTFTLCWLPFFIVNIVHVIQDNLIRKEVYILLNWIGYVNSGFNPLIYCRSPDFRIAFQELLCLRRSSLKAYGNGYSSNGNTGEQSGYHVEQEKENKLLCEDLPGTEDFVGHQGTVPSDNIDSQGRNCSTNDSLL
Chain of Sodium-dependent serotonin transporter (P31645 whole entry): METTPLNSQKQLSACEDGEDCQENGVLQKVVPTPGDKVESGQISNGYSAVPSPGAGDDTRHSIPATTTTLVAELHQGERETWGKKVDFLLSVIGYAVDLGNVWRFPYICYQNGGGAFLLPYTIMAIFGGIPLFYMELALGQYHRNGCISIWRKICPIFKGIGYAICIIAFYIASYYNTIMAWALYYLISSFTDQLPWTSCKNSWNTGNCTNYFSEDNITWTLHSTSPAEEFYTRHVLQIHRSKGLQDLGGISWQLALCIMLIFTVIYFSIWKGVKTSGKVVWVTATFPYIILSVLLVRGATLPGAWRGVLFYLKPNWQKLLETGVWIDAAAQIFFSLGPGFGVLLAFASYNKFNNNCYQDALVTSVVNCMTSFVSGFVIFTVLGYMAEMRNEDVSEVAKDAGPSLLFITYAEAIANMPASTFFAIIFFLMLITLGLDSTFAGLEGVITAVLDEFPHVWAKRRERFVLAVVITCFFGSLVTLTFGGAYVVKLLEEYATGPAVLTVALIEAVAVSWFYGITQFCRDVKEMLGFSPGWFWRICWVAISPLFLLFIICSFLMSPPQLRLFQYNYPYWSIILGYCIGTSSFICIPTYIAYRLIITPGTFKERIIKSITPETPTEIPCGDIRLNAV
Chain of Melanocortin receptor 4 (P32245 whole entry): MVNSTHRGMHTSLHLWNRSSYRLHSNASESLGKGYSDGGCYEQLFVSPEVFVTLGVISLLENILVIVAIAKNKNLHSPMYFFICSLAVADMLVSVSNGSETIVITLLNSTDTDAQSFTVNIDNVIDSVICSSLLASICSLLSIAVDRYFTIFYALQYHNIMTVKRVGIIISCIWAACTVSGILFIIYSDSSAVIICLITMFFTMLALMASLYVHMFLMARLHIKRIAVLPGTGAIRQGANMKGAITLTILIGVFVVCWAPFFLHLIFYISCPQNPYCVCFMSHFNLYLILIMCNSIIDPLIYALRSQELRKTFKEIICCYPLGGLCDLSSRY

Row | SMILES | AC50 [1] [µM] | AC50 [2] [µM] | AC50 [3] [µM] | AC50 (Estrogen receptor) [µM] | AC50 (Melanocortin receptor 4) [µM] | AC50 (Glucocorticoid receptor) [µM] | AC50 (Progesterone receptor) [µM] | AC50 [4] [µM]
1 | C[C@]12C=CC(=O)C=C1CC[C@@H]1[C@@H]2[C@@H](O)C[C@@]2(C)[C@H]1CC[C@]2(O)C(=O)CO [PREDNISOLONE] | > 10 | > 30 | > 10 | > 30 | > 30 | – | – | –
2 | CCC(=O)c1ccc2c(c1)N(CC(C)N(C)C)c1ccccc1S2 (stereo not given) [PROPIOMAZINE] | 0.0294 | – | > 10 | > 30 | > 10 | > 30 | > 30 | > 10
3 | CC(C)(C)NCC(O)COc1ccccc1C#N (stereo not given) [BUNITROLOL] | – | > 30 | – | – | – | – | – | –
4 | COc1cccc2c1C(=O)c1c(O)c3c(c(O)c1C2=O)C[C@@](O)(C(=O)CO)C[C@@H]3O[C@H]1C[C@H](N)[C@H](O)[C@H](C)O1 [DOXORUBICIN] | > 10 | > 30 | > 10 | 0.53 | > 30 | 2.59 | > 30 | –
5 | CC1(C)O[C@@H]2C[C@H]3[C@@H]4CCC5=CC(=O)C=C[C@]5(C)[C@@]4(F)[C@@H](O)C[C@]3(C)[C@]2(C(=O)CO)O1 [TRIAMCINOLONE ACETONIDE] | – | – | – | – | – | 0.0031 | – | –
6 | COc1ccc(C(=O)c2ccccc2)c(O)c1 [OXYBENZONE] | – | > 30 | – | – | – | – | – | –
7 | C[C@]12CCC(=O)C=C1[C@@H]1C[C@@H]1[C@H]1[C@@H]3[C@@H]4C[C@@H]4[C@@]4(CCC(=O)O4)[C@@]3(C)CC[C@@H]12 [DROSPIRENONE] | – | – | > 30 | – | – | – | – | > 30
8 | CN(C)CCC(O)(c1ccccc1)c1ccccc1Cl (stereo not given) [CHLOPHEDIANOL] | 11.8 | – | > 10 | > 10 | > 10 | > 10 | > 10 | > 10
9 | Cc1ccc(O)c([C@H](CCN(C(C)C)C(C)C)c2ccccc2)c1 [TOLTERODINE] | 2.74 | – | – | – | – | – | – | > 10
10 | N=C(N)NC(=O)c1nc(Cl)c(N)nc1N [AMILORIDE] | 2.69 | – | > 30 | > 30 | > 30 | > 30 | > 30 | –
11 | Oc1cc(Cl)ccc1Oc1ccc(Cl)cc1Cl [TRICLOSAN] | – | > 30 | – | – | – | > 30 | 18 | > 30
12 | C[C@]12C=CC(=O)C=C1C(Cl)=C[C@@H]1[C@@H]2[C@@H](O)C[C@@]2(C)[C@H]1CC[C@]2(O)C(=O)CO [CLOPREDNOL] | – | > 30 | – | > 30 | – | 0.032 | > 3 | > 30
13 | CN(C)[C@@H]1C(O)=C(C(=O)NCN2CCCC2)C(=O)[C@@]2(O)C(O)=C3C(=O)c4c(O)cccc4[C@@](C)(O)[C@H]3C[C@@H]12 [ROLITETRACYCLINE] | > 10 | – | > 10 | – | > 10 | 25.8 | > 30 | > 10
14 | C[C@]12CCC(=O)C=C1C=C[C@@H]1[C@@H]2CC[C@@]2(C)[C@H]1CC[C@@]21CCC(=O)O1 [CANRENONE] | – | > 30 | > 30 | > 30 | – | 1.3 | – | > 30
15 | CCn1c(=O)c2c(nc(/C=C/c3ccc(OC)c(OC)c3)n2C)n(CC)c1=O [ISTRADEFYLLINE] | – | – | – | – | – | – | > 30 | –
16 | CC(C)(Oc1ccc(Cl)cc1)C(=O)OCCOC(=O)c1cccnc1 [ETOFIBRATE] | – | > 30 | > 30 | > 30 | – | > 30 | > 30 | > 30
17 | COc1ccc(-c2cc(=S)ss2)cc1 [ANETHOLTRITHION] | – | – | 13 | > 30 | – | > 30 | – | > 10
